Assay results as given in patent publication US20250304644A1, “PEPTIDES TRIPLE AGONISTS OF GIP, GLP-1 AND GLP-2” (BAINAN BIOTECH APS, priority 2021, published 2025).
Read-outs that look alike come from different tables or passages of the source. *1 amine or outer side, *2 acyl side, *3 side chain or, on linkers, in order; H or OH if unused. Where a SMILES comes first, the peptide text is derived from it. Where no end group is shown, it is not given here. Side-chain parts run from the residue outwards. [ ]: non-standard residue; d: D form. The star is where a group is joined. C18 diacid = O=C(O)CCCCCCCCCCCCCCCCC(=O)*; γGlu = O=C(O)[C@H](CCC(=O)[*:2])N[*:1]; AEEA = NCCOCCOCC(=O)O; Aib = CC(C)(N)C(=O)O

Key:
Format in all cases: cell-based
human GLP-2R = biological target: T1, human GLP-2R (Homo sapiens, UniProt O95838); experiment: cAMP assay (HitHunter) in transiently transfected COS-7 cells expressing human GLP-2R; conditions: for Emax: COS-7, normalized to highest concentration of the endogenous ligand, read-out: Efficacy GLP-2R (Emax)
T1 construct: host or cells: COS-7
T1 sequence (O95838 1-553): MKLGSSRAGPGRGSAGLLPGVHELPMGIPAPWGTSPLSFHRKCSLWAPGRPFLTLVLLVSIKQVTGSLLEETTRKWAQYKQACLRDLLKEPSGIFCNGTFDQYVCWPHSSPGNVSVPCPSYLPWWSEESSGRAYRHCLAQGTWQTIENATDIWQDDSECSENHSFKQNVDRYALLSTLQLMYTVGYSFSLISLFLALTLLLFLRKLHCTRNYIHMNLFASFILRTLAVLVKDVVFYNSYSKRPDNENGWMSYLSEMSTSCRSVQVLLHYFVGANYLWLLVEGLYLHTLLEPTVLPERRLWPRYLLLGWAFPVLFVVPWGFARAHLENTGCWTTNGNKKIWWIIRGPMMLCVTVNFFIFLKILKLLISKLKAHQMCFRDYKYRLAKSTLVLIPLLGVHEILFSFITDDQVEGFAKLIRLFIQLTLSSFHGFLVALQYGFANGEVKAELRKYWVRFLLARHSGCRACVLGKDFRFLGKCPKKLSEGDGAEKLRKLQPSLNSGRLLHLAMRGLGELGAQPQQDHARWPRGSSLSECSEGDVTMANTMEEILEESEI
Experimental: The next day the assay was initiated by washing with HEPES buffered saline (HBS) and followed by an incubation step with assay buffer (HBS added 1 mM isobutyl-1-methylxanthine (IBMX)) for 30 min at 37° C. The ligands were then added and incubated for an additional 30 min at 37° C. After ligand incubation, the HitHunter® CAMP assay (Eurofins DiscoverX, Fremont, […] USA) was carried out according to the manufacturer's instructions. […] The potencies (EC50 values) were determined by nonlinear regression using GraphPad Prism 9 (San Diego, California, USA). Sigmoid curves were fitted logistically. The efficacies (Emax values) were determined by normalization to the highest concentration applied of the endogenous ligand for each receptor.

human GIPR = biological target: T2, human GIPR (Homo sapiens, UniProt P48546); experiment: cAMP assay (HitHunter) in transiently transfected COS-7 cells expressing human GIPR; conditions: for Emax: COS-7, normalized to highest concentration of the endogenous ligand, read-out: Efficacy GIPR (Emax); for EC50: cAMP, COS-7 cells, human GIPR
T2 construct: host or cells: COS-7
T2 sequence (P48546 22-466): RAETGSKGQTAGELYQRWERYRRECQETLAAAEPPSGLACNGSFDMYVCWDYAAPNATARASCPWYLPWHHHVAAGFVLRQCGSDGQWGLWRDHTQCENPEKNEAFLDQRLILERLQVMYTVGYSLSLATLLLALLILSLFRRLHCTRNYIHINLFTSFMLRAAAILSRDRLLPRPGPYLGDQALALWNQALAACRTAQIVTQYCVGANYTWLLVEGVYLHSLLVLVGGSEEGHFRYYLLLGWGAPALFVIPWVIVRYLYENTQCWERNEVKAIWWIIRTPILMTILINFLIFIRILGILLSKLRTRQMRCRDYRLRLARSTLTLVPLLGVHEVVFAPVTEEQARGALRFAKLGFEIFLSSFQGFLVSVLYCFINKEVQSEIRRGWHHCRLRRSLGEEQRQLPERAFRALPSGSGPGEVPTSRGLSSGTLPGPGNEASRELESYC

human SNAP-tagged GIPR = biological target: T3, human SNAP-tagged GIPR (Homo sapiens, UniProt P48546); experiment: Receptor internalization assay, HEK293A cells expressing human SNAP-tagged GIPR; conditions: for Absolute hGIPR internalization (AUC): AUC of sigmoid curves up to 1 μM, 60 minutes at 37° C.; for Relative hGIPR internalization (%): relative to hGIP 1-42 = 100; for GIPR internalization (in words): compared to native GIP
T3 construct: host or cells: HEK293A
T3 sequence (P48546 22-466): T2 sequence (P48546 22-466)

human GLP-1R = biological target: T4, human GLP-1R (Homo sapiens, UniProt P43220); experiment: cAMP assay (HitHunter) in transiently transfected COS-7 cells expressing human GLP-1R; conditions: for Emax: COS-7, normalized to highest concentration of the endogenous ligand, read-out: Efficacy GLP-1R (Emax); for EC50: cAMP, COS-7 cells, human GLP-1R
T4 construct: host or cells: COS-7
T4 sequence (P43220 24-463): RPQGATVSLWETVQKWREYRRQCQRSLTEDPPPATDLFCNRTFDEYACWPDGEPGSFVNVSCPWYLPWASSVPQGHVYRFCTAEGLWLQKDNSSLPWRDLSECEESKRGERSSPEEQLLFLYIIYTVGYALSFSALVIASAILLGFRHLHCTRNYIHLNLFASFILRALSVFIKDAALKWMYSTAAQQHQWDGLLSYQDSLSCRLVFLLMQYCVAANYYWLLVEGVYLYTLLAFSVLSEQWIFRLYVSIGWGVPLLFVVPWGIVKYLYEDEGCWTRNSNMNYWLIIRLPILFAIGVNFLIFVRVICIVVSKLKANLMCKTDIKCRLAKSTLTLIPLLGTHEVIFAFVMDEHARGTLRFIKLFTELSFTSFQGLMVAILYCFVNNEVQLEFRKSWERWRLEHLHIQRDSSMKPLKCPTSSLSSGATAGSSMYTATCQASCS

H-HADGTFTSDYSTILDKLAARDFINWLIQTKGKKNDWK([AEEA-AEEA-γGlu-C18 diacid])HNITQ-OH [Compound 25]
Emax (human GLP-2R): 117%
Emax (human GIPR): 107%
EC50 (human GIPR): 0.398 nM
Absolute hGIPR internalization (AUC) (human SNAP-tagged GIPR): 13.1
Relative hGIPR internalization (%) (human SNAP-tagged GIPR): 35%
Emax (human GLP-1R): 116%
EC50 (human GLP-1R; read-out: EC50 (nM) GLP-1R): 0.05 nM

CC[C@H](C)[C@H](NC(=O)[C@H](Cc1ccccc1)NC(=O)[C@H](CC(=O)O)NC(=O)[C@H](CCCCNC(=O)COCCOCCNC(=O)COCCOCCNC(=O)CC[C@H](NC(=O)CCCCCCCCCCCCCCCCC(=O)O)C(=O)O)NC(=O)[C@H](C)NC(=O)[C@H](C)NC(=O)[C@H](CC(C)C)NC(=O)[C@H](CC(N)=O)NC(=O)[C@H](CC(=O)O)NC(=O)[C@H](CC(C)C)NC(=O)[C@@H](NC(=O)[C@@H](NC(=O)[C@H](CO)NC(=O)[C@H](Cc1ccc(O)cc1)NC(=O)[C@H](CC(=O)O)NC(=O)[C@H](CO)NC(=O)[C@@H](NC(=O)[C@H](Cc1ccccc1)NC(=O)[C@@H](NC(=O)CNC(=O)[C@H](CC(=O)O)NC(=O)[C@H](C)NC(=O)[C@@H](N)Cc1c[nH]cn1)[C@@H](C)O)[C@@H](C)O)[C@@H](C)O)[C@@H](C)CC)C(=O)N[C@@H](CC(N)=O)C(=O)N[C@@H](Cc1c[nH]c2ccccc12)C(=O)N[C@@H](CC(C)C)C(=O)N[C@H](C(=O)N[C@@H](CCC(N)=O)C(=O)N[C@H](C(=O)N[C@@H](CCCCN)C(=O)NCC(=O)N[C@@H](CCCCN)C(=O)N[C@@H](CCCCN)C(=O)O)[C@@H](C)O)[C@@H](C)CC [Compound 18]
Emax (human GLP-2R): 91%
Emax (human GIPR): 82%
Absolute hGIPR internalization (AUC) (human SNAP-tagged GIPR): 2.1
Emax (human GLP-1R): 112%
EC50 (human GLP-1R; read-out: EC50 (nM) GLP-1R): 0.06 nM

HADGTFTSDYST[Aib]LDKLAARDFINWLIQTKGKKNDWKHNITQK([AEEA-AEEA-γGlu-C18 diacid])-OH [Compound 27]
Emax (human GLP-2R): 85%
EC50 (human GLP-2R; cAMP, COS-7 cells, human GLP-2R, read-out: EC50 (nM) GLP-2R): 3.2 nM
Emax (human GIPR): 124%
Absolute hGIPR internalization (AUC) (human SNAP-tagged GIPR): 9.0
GIPR internalization (in words) (human SNAP-tagged GIPR): internalization of the GIPR to a higher extent
Relative hGIPR internalization (%) (human SNAP-tagged GIPR): 24%
Emax (human GLP-1R): 115%
EC50 (human GLP-1R; read-out: EC50 (nM) GLP-1R): 0.05 nM

CC[C@H](C)[C@H](NC(=O)[C@H](Cc1ccccc1)NC(=O)[C@H](CC(=O)O)NC(=O)[C@H](CCCNC(=N)N)NC(=O)[C@H](C)NC(=O)[C@H](C)NC(=O)[C@H](CC(C)C)NC(=O)[C@H](CC(N)=O)NC(=O)[C@H](CC(=O)O)NC(=O)[C@H](CC(C)C)NC(=O)[C@@H](NC(=O)[C@@H](NC(=O)[C@H](CO)NC(=O)[C@H](Cc1ccc(O)cc1)NC(=O)[C@H](CC(=O)O)NC(=O)[C@H](CO)NC(=O)[C@@H](NC(=O)[C@H](Cc1ccccc1)NC(=O)[C@@H](NC(=O)CNC(=O)[C@H](CC(=O)O)NC(=O)[C@H](C)NC(=O)[C@@H](N)Cc1c[nH]cn1)[C@@H](C)O)[C@@H](C)O)[C@@H](C)O)[C@@H](C)CC)C(=O)N[C@@H](CC(N)=O)C(=O)N[C@@H](Cc1c[nH]c2ccccc12)C(=O)N[C@@H](CC(C)C)C(=O)N[C@H](C(=O)N[C@@H](CCC(N)=O)C(=O)N[C@H](C(=O)N[C@@H](CCCCN)C(=O)NCC(=O)N[C@@H](CCCCN)C(=O)N[C@@H](CCCCNC(=O)CC[C@H](NC(=O)CCCCCCCCCCCCCCCCC(=O)O)C(=O)O)C(=O)O)[C@@H](C)O)[C@@H](C)CC [Compound 19] (H-HADGTFTSDYSTILDNLAARDFINWLIQTKGKK([γGlu-C18 diacid])-OH; N-terminus assumed)
Emax (human GLP-2R): 94%
GLP-2R activation (in words) (human GLP-2R; cAMP, fatty acid at C-terminus of 1-33 or 1-34 backbone): reduction in GLP-2R activation
Emax (human GIPR): 92%
EC50 (human GIPR): 0.631 nM
Absolute hGIPR internalization (AUC) (human SNAP-tagged GIPR): 8.9
Relative hGIPR internalization (%) (human SNAP-tagged GIPR): 24%
Emax (human GLP-1R): 106%
EC50 (human GLP-1R; read-out: EC50 (nM) GLP-1R): 0.06 nM

HADGTFTSDYSTILDKLAARDFINWLIQTKGKKNDWKHNITQK([AEEA-AEEA-γGlu-C18 diacid])-OH [Compound 26]
Emax (human GLP-2R): 112%
Emax (human GIPR): 106%
EC50 (human GIPR): 0.316 nM
Absolute hGIPR internalization (AUC) (human SNAP-tagged GIPR): 16.4
GIPR internalization (in words) (human SNAP-tagged GIPR): internalization of the GIPR to a higher extent
Relative hGIPR internalization (%) (human SNAP-tagged GIPR): 44%
Emax (human GLP-1R): 103%
EC50 (human GLP-1R; read-out: logEC50 GLP-1R (converted)): 0.0398 nM
